Values of other authors as cited in US20010041964A1, “PHARMACOKINETIC-BASED DRUG DESIGN TOOL AND METHOD” (priority 1998, published 2001).

Columns and labels:
[1] = test system: rabbit intestinal tissue (duodenum, jejunum, ileum, colon); conditions: donor concentration per compound; for Pe (cm/s) Colon: rabbit colon; for Pe (cm/s) Duodenum: rabbit duodenum; for Pe (cm/s) Ileum: rabbit ileum; for Pe (cm/s) Jejunum: rabbit jejunum
intestinal transport = conditions: permeability standard
[2] = not given; remark: listed apart in the source
[3] = not given; remark: listed apart in the source
[4] = oral, human

Row | Structure (SMILES) | Pe (cm/s) Colon [1] [cm/s] | Pe (cm/s) Duodenum [1] [cm/s] | Pe (cm/s) Ileum [1] [cm/s] | Pe (cm/s) Jejunum [1] [cm/s] | Transport mechanism (intestinal transport) | In vivo biotransformation | Absorption (in vivo) | Bioavailability of fasted patients in clinical trials ([2]; fasted patients, Phase I studies) | Cmax (mcg/ml), Clinical 1505a ([2]; human clinical study 1505a) [µg/mL] | Tmax (hrs), Clinical 1505a ([2]; human clinical study 1505a) [h] | Cmax (mcg/ml), Clinical 1505b ([2]; human clinical study 1505b) [µg/mL] | Tmax (hrs), Clinical 1505b ([2]; human clinical study 1505b) [h] | k12 ([3]; Appendix 2, mass-volume model) | k21 ([3]; Appendix 2, mass-volume model) | k_elim ([3]; Appendix 2, mass-volume model) | Plasma Kinetics Fluid Volume ([3]; Table 11) | Plasma Kinetics k12 ([3]; Table 11) | Plasma Kinetics k21 ([3]; Table 11) | Plasma Kinetics kelim ([3]; Table 11) | Bioavailability in humans when orally administered [4]
1 | O=C[C@H](O)[C@@H](O)[C@H](O)[C@H](O)CO [D-glucose] | 9.28e-06 | 4.55e-06 | 1.45e-05 | 1.02e-05 | Carrier-mediated Influx | – | – | – | – | – | – | – | – | – | – | – | – | – | – | –
2 | Nc1nc2c(ncn2COC(CO)CO)c(=O)[nH]1.[Na] [Gancyclovir, 9-(1,3-dihydroxy-2-propoxymethyl)guanine, monosodium salt] | – | – | – | – | – | no in vivo biotransformation | poorly absorbed | 3-20% | 0.55 | 1.43 | 0.59 | 1.43 | k12 = .839 | k21 = .67 | k_elim = .161 | 76,800 ml | 0.839 | 0.670 | 0.161 | –
3 | C[C@]12CCC(=O)C=C1CC[C@@H]1[C@@H]2[C@@H](O)C[C@@]2(C)[C@H]1CC[C@]2(O)C(=O)CO [hydrocortisone] | 3.85e-06 | 3e-07 | 2.91e-06 | 1.31e-06 | – | – | – | – | – | – | – | – | – | – | – | – | – | – | – | –
4 | OC[C@@H](O)[C@@H](O)[C@H](O)[C@H](O)CO [mannitol] | 5.53e-06 | 1.73e-06 | 4.02e-06 | 3.54e-06 | Passive Paracellular | – | – | – | – | – | – | – | – | – | – | – | – | – | – | approximately 10%
